We go through 1 molecule from US7880010B2, “Crystalline forms of a dimethylphenyl compound” (Theravance, Inc., priority 2006, dated 2011).

Format in all cases: cell-based
Assay [1] has as its target T1, human β2 adrenergic receptor (endogenous, BEAS-2B cells) (Homo sapiens, UniProt P07550).
T1 construct: using a cell line expressing endogenous levels of the β2 adrenergic receptor; host or cells: BEAS-2B human lung epithelial cell line
In words: Whole-cell cAMP Flashplate assay with lung epithelial cell line (BEAS-2B). How it is done:
In this assay, the agonist potency and intrinsic activity of a test compound were determined using a cell line expressing endogenous levels of the β2 adrenergic receptor.
On the day of the assay, cells were rinsed with PBS, lifted by scraping with 5 mM EDTA in PBS, and counted. Cells were pelleted by centrifugation at 1,000 rpm and re-suspended in stimulation buffer pre-warmed to 37° C. at a final concentration of 600,000 cells/mL. Cells were used at a final concentration of 100,000 to 120,000 cells/well in this assay. […] Test compounds were tested in the assay at 11 different concentrations, ranging from 10 μM to 10 pM. Reactions were incubated for 10 min at 37° C. and stopped by addition of 100 μL of ice-cold detection buffer. Plates were sealed, incubated over night at 4° C. and counted the next morning in a Topcount scintillation counter (Packard BioScience Co., Meriden, Conn.). […] Data were analyzed by nonlinear regression analysis with the GraphPad Prism Software package (GraphPad Software, Inc., San Diego, Calif.) using the 4-parameter model for sigmoidal dose-response.

The target in another assay is T2, hM1 receptor (Homo sapiens, UniProt P11229).
T2 construct: expressed in transfected cells; host or cells: CHO
T2 sequence (P11229 1-460): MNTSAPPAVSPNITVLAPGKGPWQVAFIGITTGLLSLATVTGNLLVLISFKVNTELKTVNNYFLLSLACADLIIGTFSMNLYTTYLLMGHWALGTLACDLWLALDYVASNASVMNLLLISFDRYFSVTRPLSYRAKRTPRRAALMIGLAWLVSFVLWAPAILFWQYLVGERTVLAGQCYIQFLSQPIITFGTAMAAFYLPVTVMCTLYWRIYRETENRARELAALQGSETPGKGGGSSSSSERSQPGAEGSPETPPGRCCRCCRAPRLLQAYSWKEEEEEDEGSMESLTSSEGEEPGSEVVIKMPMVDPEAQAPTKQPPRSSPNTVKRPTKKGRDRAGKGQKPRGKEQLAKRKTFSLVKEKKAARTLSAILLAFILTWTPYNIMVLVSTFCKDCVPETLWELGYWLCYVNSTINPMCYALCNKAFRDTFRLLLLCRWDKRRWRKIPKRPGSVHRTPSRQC
In words: Blockade of agonist-mediated calcium release via FLIPR (Assay C). The settings on record: CHO cells stably expressing hM1. On the procedure: (§1) In this functional assay, the functional potency of a test compound as an antagonist of hM1, hM3 and […] receptors was determined by measuring the ability of the test compound to inhibit agonist-mediated increases in intracellular calcium.
(§2) CHO cells stably expressing the receptors were seeded into 96-well FLIPR plates the night before the assay was done. Seeded cells were washed twice with FLIPR buffer (10 mM HEPES, pH 7.4, 2 mM calcium chloride, 2.5 mM probenecid in Hank's Buffered Salt Solution (HBSS) without calcium and magnesium) using Cellwash (MTX Labsystems, Inc.) to remove growth media. After washing, each well contained 50 μL of FLIPR buffer. The cells were then incubated with 50 μL/well of 4 μM FLUO-4AM (a 2× solution was made) for 40 minutes at 37° C., 5% carbon dioxide. Following the dye incubation period, cells were washed two times with FLIPR buffer, leaving a final volume of 50 μL in each well.
(§3) The dose-dependent stimulation of intracellular Ca^2+ release for oxotremorine was determined so that the test compound could be measured against oxotremorine stimulation at an EC90 concentration. Cells were first incubated with compound dilution buffer for 20 minutes and then oxotremorine was added. […]
(§4) The parameters used for the FLIPR were: exposure length of 0.4 seconds, laser strength of 0.5 watts, excitation wavelength of 488 nm, and emission wavelength of 550 nm. Baseline was determined by measuring the change in fluorescence for 10 seconds prior to addition of oxotremorine. Following oxotremorine stimulation, the FLIPR continuously measured the change of fluorescence every 0.5 to 1 second for 1.5 minutes to capture the maximum fluorescence change.
(§5) The change of fluorescence was expressed as maximum fluorescence minus baseline fluorescence for each well. The raw data was analyzed against the logarithm of test compound concentration by nonlinear regression with GraphPad Prism (GraphPad Software, Inc., San Diego, Calif.) using the built-in model for sigmoidal dose-response. […]

The target in a further assay is T3, hM3 receptor (Homo sapiens, UniProt P20309).
T3 construct: expressed in transfected cells; host or cells: CHO
T3 sequence (P20309 whole entry): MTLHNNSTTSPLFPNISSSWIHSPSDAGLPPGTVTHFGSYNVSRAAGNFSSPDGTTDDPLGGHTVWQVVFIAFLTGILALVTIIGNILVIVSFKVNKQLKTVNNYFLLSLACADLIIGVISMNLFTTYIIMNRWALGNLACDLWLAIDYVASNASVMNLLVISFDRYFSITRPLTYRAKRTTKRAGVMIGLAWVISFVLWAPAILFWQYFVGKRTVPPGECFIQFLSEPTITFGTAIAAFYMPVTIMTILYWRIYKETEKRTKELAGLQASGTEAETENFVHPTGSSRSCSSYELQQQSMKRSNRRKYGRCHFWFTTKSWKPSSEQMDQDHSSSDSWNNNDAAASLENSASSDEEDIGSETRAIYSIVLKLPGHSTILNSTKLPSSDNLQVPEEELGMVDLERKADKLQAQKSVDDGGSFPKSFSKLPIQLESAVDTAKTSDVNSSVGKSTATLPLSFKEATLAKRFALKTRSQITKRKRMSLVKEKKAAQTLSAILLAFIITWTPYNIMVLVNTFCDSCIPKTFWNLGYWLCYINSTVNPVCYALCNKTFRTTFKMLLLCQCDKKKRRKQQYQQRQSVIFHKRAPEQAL
The assay is described as above. The settings on record: CHO cells stably expressing hM3. How it is done:
as §1, §2, §3, §4, §5

A further assay deals with cM5 receptor. Described as above. The settings on record: CHO cells stably expressing cM5. On the procedure:
as §1, §2, §3, §4, §5

T1 sequence (P07550 whole entry): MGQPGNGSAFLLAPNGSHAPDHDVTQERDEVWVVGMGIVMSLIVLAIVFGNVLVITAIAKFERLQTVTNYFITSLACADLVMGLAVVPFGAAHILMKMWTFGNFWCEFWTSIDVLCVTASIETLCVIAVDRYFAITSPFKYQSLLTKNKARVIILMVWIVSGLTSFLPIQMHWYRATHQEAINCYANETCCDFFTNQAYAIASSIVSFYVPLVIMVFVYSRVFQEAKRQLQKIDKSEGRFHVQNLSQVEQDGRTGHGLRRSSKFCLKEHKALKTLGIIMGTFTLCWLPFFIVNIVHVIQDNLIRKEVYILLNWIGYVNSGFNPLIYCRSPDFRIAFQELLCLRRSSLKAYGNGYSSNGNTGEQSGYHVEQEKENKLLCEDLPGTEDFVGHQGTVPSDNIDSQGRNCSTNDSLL

Usually EC50 stands for the concentration that produces a half-maximal response. Take `Cc1cc(NC(=O)CCN2CCC(OC(=O)Nc3ccccc3-c3ccccc3)CC2)c(C)cc1CNC[C@H](O)c1ccc(O)c(NC=O)c1` [compound of formula I, biphenyl-2-ylcarbamic acid 1-[2-(4-{[(R)-2-(3-formylamino-4-hydroxyphenyl)-2-hydroxyethylamino]methyl}-2,5-dimethylphenylcarbamoyl)ethyl]-piperidin-4-yl ester]: the EC50 in assay [1] (cAMP) was below 0.01 µM. Moreover, in assay [1] (compared with full β2 agonist isoproterenol (1.0)), the intrinsic activity result is listed as “greater than 0.3”. The “Kobs for blockade of agonist-mediated calcium release” value at hM1 receptor, at hM3 receptor and with cM5 receptor was “less than 10 nM” in each case.
